10 molecules from ChEMBL document CHEMBL1201862, “PubChem BioAssay data set” (2004) can be followed below.

Test systems include EKVX; IGROV-1; SK-MEL-5; SF-295; M14; UACC-62; SF-539; MOLT-4; MDA-MB-435; SN12C; 786-0; HT-29; OVCAR-8; A549; SR; U-251; HOP-62; RXF 393; NCI-H23; TK-10.
Common to all, as to assay: NCI anticancer screen, dose series, 48 h

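The compound was tested at five concentrations on cells cultured in 96-well plates, with a 48-hour exposure period. GI50 = concentration required for 50% inhibition of growth.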 Active and inactive are the calls of the source. No stated cut-off is given here; in the data, active = GI50 up to about 1.1 µM and inactive = higher.

For `C[N+](C)(C)CCN[N+]1(C)CCCc2ccccc21` (stereo not given), the GI50 in the assay on EKVX, with IGROV-1, in the assay on SK-MEL-5, in the assay with SF-295, in the assay on M14 and with UACC-62 was > 100 µM (inactive) throughout. The GI50 in the assay on SF-539 was 4.92 µM (inactive); in the assay with MOLT-4 it was 31 µM (inactive); in the assay on MDA-MB-435, > 100 µM (inactive); in the assay with SN12C, > 100 µM (inactive); with 786-0 it was 33.3 µM (inactive); with HT-29 it was > 100 µM (inactive). Also, the GI50 with OVCAR-8 was > 100 µM (inactive); with A549 it was > 100 µM (inactive); in the assay with SR it was 50.2 µM (inactive); in the assay with U-251, 52.1 µM (inactive); in the assay with HOP-62, > 100 µM (inactive); in the assay with RXF 393, 36 µM (inactive). Moreover, the GI50 in the assay with NCI-H23 and in the assay with TK-10 was > 100 µM (inactive) in each case.

Consider `O=C(CN1C(=O)c2ccccc2C1=O)C(O)CN1C(=O)c2ccccc2C1=O` (stereo not given), for which the GI50 with EKVX is 76.2 µM (inactive); in the assay with IGROV-1 it was 43.7 µM (inactive); in the assay on SK-MEL-5 it was > 100 µM (inactive); in the assay on SF-295, 31.3 µM (inactive); with M14, > 100 µM (inactive); with UACC-62, > 100 µM (inactive). Besides, the GI50 with SF-539 was 33.2 µM (inactive); in the assay on MOLT-4, > 100 µM (inactive); in the assay with MDA-MB-435, 34.1 µM (inactive); with SN12C, 53.5 µM (inactive); with 786-0, 28 µM (inactive); with HT-29, > 100 µM (inactive). Also, the GI50 is 46.5 µM (inactive) with OVCAR-8; > 100 µM (inactive) in the assay with A549; > 100 µM (inactive) with SR; 29.1 µM (inactive) with U-251; 17.9 µM (inactive) in the assay with HOP-62; 34.4 µM (inactive) in the assay with RXF 393. Besides, the GI50 in the assay on NCI-H23 was 26.9 µM (inactive); in the assay with TK-10 it was 46.1 µM (inactive).

In the case of `COC(=O)N/N=C(\C)C(CN1CCOCC1)C(c1ccccc1)c1cc2ccccc2oc1=O` (stereo not given), the GI50 in the assay with EKVX, with IGROV-1, in the assay on SK-MEL-5, in the assay with SF-295, in the assay with M14 and in the assay on UACC-62 was > 100 µM (inactive) each time. Moreover, the GI50 is > 100 µM (inactive) in the assay on SF-539; 44.2 µM (inactive) with MOLT-4; > 100 µM (inactive) in the assay with MDA-MB-435; > 100 µM (inactive) with SN12C; > 100 µM (inactive) in the assay on 786-0; > 100 µM (inactive) with HT-29. Further, the GI50 with OVCAR-8 was > 100 µM (inactive); in the assay on A549 it was > 100 µM (inactive); with SR, 23.9 µM (inactive); in the assay on U-251, > 100 µM (inactive); with HOP-62 it was > 100 µM (inactive); in the assay with RXF 393 it was 72.1 µM (inactive). Besides, the GI50 with NCI-H23 and with TK-10 was > 100 µM (inactive) throughout.

For `O=CNNC(=O)Nc1cccc2ccccc12`, the GI50 in the assay on EKVX, with IGROV-1, in the assay on SK-MEL-5, with SF-295, in the assay with M14 and with UACC-62 was > 100 µM (inactive) throughout. Moreover, the GI50 with SF-539, in the assay on MOLT-4, in the assay with MDA-MB-435, in the assay on SN12C, in the assay on 786-0 and in the assay on HT-29 was > 100 µM (inactive) in each case. In addition, the GI50 in the assay with OVCAR-8, in the assay on A549, in the assay on SR, in the assay with U-251, in the assay on HOP-62 and in the assay with RXF 393 was > 100 µM (inactive) each time. In addition, the GI50 with NCI-H23 and in the assay with TK-10 was > 100 µM (inactive) throughout.

Turning to `CC(=O)OCC1(C)C(O)CCC2(C)C1CCC1CC3CC12CCC3(O)CO` (stereo not given), the GI50 in the assay with EKVX is > 100 µM (inactive); in the assay on IGROV-1, > 47 µM (inactive); in the assay with SK-MEL-5, > 79.4 µM (inactive); in the assay on SF-295, 10.8 µM (inactive); in the assay on M14, > 100 µM (inactive); in the assay on UACC-62, 61.8 µM (inactive). Moreover, the GI50 in the assay on SF-539 is 50.6 µM (inactive); in the assay on MOLT-4, > 56.5 µM (inactive); in the assay on MDA-MB-435, > 100 µM (inactive); in the assay with SN12C, > 100 µM (inactive); with 786-0 it was 44.4 µM (inactive); in the assay with HT-29, 34.3 µM (inactive). Besides, the GI50 is 44.1 µM (inactive) in the assay with OVCAR-8; 55.1 µM (inactive) in the assay with A549; 4.42 µM (inactive) with SR; > 100 µM (inactive) in the assay with U-251; 36.5 µM (inactive) in the assay on HOP-62; > 100 µM (inactive) in the assay on RXF 393. For the same molecule, the figures for the GI50 in the assay with NCI-H23 and with TK-10 were 58.7 µM (inactive) and > 100 µM (inactive), respectively.

For `Cc1c(C(=O)c2ccc(N)c3ccccc23)c2ccccc2n1CCN1CCOCC1`, the GI50 is 29.1 µM (inactive) in the assay with EKVX; 27.1 µM (inactive) with IGROV-1; 15.5 µM (inactive) in the assay on SK-MEL-5; 3.15 µM (inactive) in the assay on SF-295; 24.5 µM (inactive) in the assay on M14; 16.4 µM (inactive) with UACC-62. For the same molecule, the GI50 in the assay with SF-539 is 19.7 µM (inactive); with MOLT-4, 12 µM (inactive); in the assay with MDA-MB-435, 2.02 µM (inactive); with SN12C it was 33.8 µM (inactive); in the assay with 786-0 it was 28 µM (inactive); with HT-29 it was 22.4 µM (inactive). The GI50 in the assay on OVCAR-8 is 31.2 µM (inactive); in the assay with A549, 13.1 µM (inactive); in the assay with SR it was > 32.8 µM (inactive); in the assay with U-251 it was 2.77 µM (inactive); with HOP-62, 5.74 µM (inactive); with RXF 393 it was 24.2 µM (inactive). Besides, the values for the GI50 in the assay with NCI-H23 and in the assay on TK-10 were 29.7 µM (inactive) and 31 µM (inactive), respectively.

As for `Nc1ncnc2c1ncn2C1C=CC(COS(N)(=O)=O)C1` (stereo not given), the GI50 with EKVX is > 100 µM (inactive); with IGROV-1 it was 34.2 µM (inactive); with SK-MEL-5, 30.4 µM (inactive); in the assay with SF-295, 40.9 µM (inactive); with M14, 22.2 µM (inactive); in the assay on UACC-62, 20.6 µM (inactive). The GI50 was 0.676 µM (active) with SF-539; 7.85 µM (inactive) in the assay on MOLT-4; 35.2 µM (inactive) in the assay with MDA-MB-435; 8.2 µM (inactive) in the assay with SN12C; 18.5 µM (inactive) in the assay with 786-0; 14.9 µM (inactive) with HT-29. Also, the GI50 in the assay with OVCAR-8 is 13.1 µM (inactive); with A549, 36.2 µM (inactive); in the assay with SR, 8.55 µM (inactive); with U-251 it was 5.26 µM (inactive); with HOP-62, 16.8 µM (inactive); with RXF 393 it was 12.4 µM (inactive). The results for the GI50 in the assay with NCI-H23 and in the assay on TK-10 were 9.77 µM (inactive) and > 100 µM (inactive), respectively.

As to `COC(=O)/C=C(/C(=O)OC)c1c(C)cc2c(C)cc(C)cc(C)c1-2`, the GI50 in the assay with EKVX was 32.1 µM (inactive); with IGROV-1, 23.3 µM (inactive); in the assay with SK-MEL-5, 8.15 µM (inactive); with SF-295, 7.24 µM (inactive); with M14, 8.28 µM (inactive); in the assay with UACC-62, 9.77 µM (inactive). Also, the GI50 in the assay on SF-539 is 9.12 µM (inactive); in the assay on MOLT-4 it was 5.46 µM (inactive); with MDA-MB-435, 2.77 µM (inactive); in the assay on SN12C, 14.9 µM (inactive); with 786-0, 15.2 µM (inactive); in the assay with HT-29, 7.41 µM (inactive). Also, the GI50 in the assay on OVCAR-8 is 25.4 µM (inactive); in the assay on A549 it was 14.9 µM (inactive); with SR, 4.19 µM (inactive); in the assay on U-251 it was 8.26 µM (inactive); in the assay with HOP-62, 9.14 µM (inactive); in the assay on RXF 393, 18.8 µM (inactive). Moreover, the GI50 in the assay with NCI-H23 is 18.5 µM (inactive); with TK-10, 27.1 µM (inactive).

`OCc1ccccc1O[C@H]1O[C@H](CO)[C@@H](O)[C@H](O)[C@H]1O`: the GI50 in the assay on EKVX, in the assay on IGROV-1, in the assay on SK-MEL-5, with SF-295, with M14 and with UACC-62 was > 100 µM (inactive) in each case. The GI50 with SF-539, in the assay on MOLT-4, with MDA-MB-435, in the assay with SN12C, in the assay with 786-0 and in the assay with HT-29 was > 100 µM (inactive) throughout. The GI50 was > 100 µM (inactive) with OVCAR-8; > 100 µM (inactive) with A549; > 10 µM (inactive) in the assay on SR; > 100 µM (inactive) with U-251; > 100 µM (inactive) with HOP-62; > 100 µM (inactive) in the assay with RXF 393. The GI50 with NCI-H23 and in the assay on TK-10 was > 100 µM (inactive) each time.

As for `CSc1ccc2c(c1)N(CCCN(C)C)c1ccccc1S2`, the GI50 in the assay on EKVX is 18.6 µM (inactive); in the assay on IGROV-1, 13.2 µM (inactive); in the assay on SK-MEL-5, 11.4 µM (inactive); in the assay on SF-295, 12.8 µM (inactive); in the assay on M14, 5.19 µM (inactive); in the assay on UACC-62, 10.4 µM (inactive). The GI50 is 17.3 µM (inactive) in the assay with SF-539; 5.81 µM (inactive) in the assay on MOLT-4; 4.67 µM (inactive) with MDA-MB-435; 13.1 µM (inactive) in the assay on SN12C; 13.7 µM (inactive) in the assay on 786-0; 6.78 µM (inactive) in the assay on HT-29. For the same molecule, the GI50 is 17.2 µM (inactive) in the assay on OVCAR-8; 15.4 µM (inactive) in the assay on A549; 6.19 µM (inactive) in the assay on SR; 13.5 µM (inactive) in the assay with U-251; 14 µM (inactive) in the assay with HOP-62; 7.55 µM (inactive) in the assay with RXF 393. For the same molecule, the GI50 with NCI-H23 is 16.4 µM (inactive); in the assay with TK-10, 14.9 µM (inactive).
